From patent publication US20210395651A1, “COMPOUNDS STABILIZING HYDROLASES IN LIQUIDS” (BASF SE, priority 2018, published 2021)

Target: T1, Lipolase® 100L (Thermomyces lanuginosus, UniProt O59952)
T1 construct: purchased Sigma-Aldrich
T1 sequence (O59952 23-291): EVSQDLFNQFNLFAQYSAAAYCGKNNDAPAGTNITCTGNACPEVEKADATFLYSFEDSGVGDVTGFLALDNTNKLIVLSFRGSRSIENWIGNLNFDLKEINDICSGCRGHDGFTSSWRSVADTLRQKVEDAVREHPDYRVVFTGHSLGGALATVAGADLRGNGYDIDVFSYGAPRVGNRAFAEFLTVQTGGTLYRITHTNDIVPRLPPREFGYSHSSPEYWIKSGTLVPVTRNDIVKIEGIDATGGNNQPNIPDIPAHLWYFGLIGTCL
Assay: Lipase storage stability in liquid formulations at 37° C. (pNP-valerate activity)
Assay type: biochemical, Thermomyces lanuginosa
Settings: for lipase activity, 3 d: 3 d storage at 37° C.; for lipase activity, 7 d: 7 d storage at 37° C.; for lipase activity, 14 d: 14 d storage at 37° C.; for lipase activity, 21 d: 21 d storage at 37° C.; for lipase activity, 28 d: 28 d storage at 37° C.; for lipase activity, 35 d: 35 d storage at 37° C.; for lipase activity, T0: relative to 100% value of reference formulation at time 0
Experimental: The storage stability of Lipase was assessed at 37° C.
Base test formulations were manufactured by making base formulations I to V by mixing the components according to Table 1.
The respective component (a) or comparative compound was added, if applicable, to the respective base formulation in amounts as indicated in Table 1.
Lipase used: Lipolase® 100L (CAS-No. 9001-62-1, EC-No. 232-619-9) was purchased from Sigma-Aldrich.
The amount of lipase as provided in Table 1 refers to active protein.
Water was added to accomplish the balance to 100.
Lipolase activity at certain points in time as indicated in Table 2 was be determined by employing pNitrophenol-valerate (2.4 mM pNP-C5 in 100 mM Tris pH 8.0, 0.01% Triton X100) as a substrate. The absorption at 405 nm was measured at 20° C. every 30 seconds over 5 minutes.
The slope (absorbance increase at 405 nm per minute) of the time dependent absorption-curve is directly proportional to the activity of the lipase.
The […] activity values provided in Table 2 were calculated referring to the 100% value determined in the reference formulation at the time 0.
The nomenclature of formulations is as follows: the Roman number before the full stop characterizes the base formulation, the Arabian number the type of compound (A.# compound according to invention (component (a)); (B.#) comparative compound).

[1] = base formulation I. (Lipolase 0.2 wt%, tested compound 2.5 wt%)
[2] = base formulation III. (Lipolase 0.2 wt%, tested compound 2.0 wt%)
[3] = base formulation IV. (Lipolase 0.2 wt%, tested compound 2.0 wt%)
[4] = base formulation V. (Lipolase 0.2 wt%, tested compound 2.0 wt%)
[5] = base formulation II. (Lipolase 0.2 wt%, tested compound 2.5 wt%)

| Compound | lipase activity, 3 d [1] [%] | lipase activity, 7 d [1] [%] | lipase activity, 14 d [1] [%] | lipase activity, 21 d [1] [%] | lipase activity, 28 d [1] [%] | lipase activity, 35 d [1] [%] | lipase activity, T0 [1] [%] | lipase activity, 3 d [2] [%] | lipase activity, 7 d [2] [%] | lipase activity, 14 d [2] [%] | lipase activity, 21 d [2] [%] | lipase activity, 28 d [2] [%] | lipase activity, 35 d [2] [%] | lipase activity, 3 d [3] [%] | lipase activity, 7 d [3] [%] | lipase activity, 14 d [3] [%] | lipase activity, 21 d [3] [%] | lipase activity, 28 d [3] [%] | lipase activity, 35 d [3] [%] | lipase activity, T0 [3] [%] | other results |
| --- | --- | --- | --- | --- | --- | --- | --- | --- | --- | --- | --- | --- | --- | --- | --- | --- | --- | --- | --- | --- | --- |
| O=C(O)CC(O)(CC(=O)O)C(=O)O [B.1, citric acid, reference compound] | 89 | 81 | 73 | 61 | 50 | 29 | 100 | 92 | 78 | 70 | 51 | 39 | 30 | 95 | 82 | 70 | 58 | 43 | 36 | 97 | lipase activity, T0 [2]: 102%; lipase activity, 3 d [4]: 93%; lipase activity, 7 d [4]: 86%; lipase activity, 14 d [4]: 74%; lipase activity, 21 d [4]: 63%; lipase activity, 28 d [4]: 52%; lipase activity, 35 d [4]: 43%; lipase activity, T0 [4]: 98% |
| O=C([O-])CC(O)(CC(=O)[O-])C(=O)[O-].[Na+].[Na+].[Na+] [B.2, citric acid trisodiumsalt, reference compound] | 90 | 81 | 68 | 57 | 47 | 31 | 97 | 94 | 80 | 69 | 53 | 44 | 37 | 90 | 81 | 68 | 55 | 40 | 34 | 96 | lipase activity, 3 d [5]: 95%; lipase activity, 7 d [5]: 82%; lipase activity, 14 d [5]: 63%; lipase activity, 21 d [5]: 56%; lipase activity, 28 d [5]: 41%; lipase activity, 35 d [5]: 34%; lipase activity, T0 [5]: 98%; lipase activity, T0 [2]: 101% |
| CCOC(=O)C(=O)OCC [B.3, diethyloxalate, reference compound] | 90 | 80 | 70 | 54 | 45 | 37 | 97 | 94 | 79 | 69 | 50 | 40 | 32 | 93 | 86 | 74 | 63 | 51 | 46 | 98 | lipase activity, T0 [2]: 98%; lipase activity, 3 d [4]: 92%; lipase activity, 7 d [4]: 85%; lipase activity, 14 d [4]: 71%; lipase activity, 21 d [4]: 65%; lipase activity, 28 d [4]: 56%; lipase activity, 35 d [4]: 46%; lipase activity, T0 [4]: 97% |
| CC(=O)OCC(COC(C)=O)OC(C)=O [B.4, glyceroltriacetate (triacetine), reference compound] | 91 | 84 | 72 | 56 | 45 | 39 | 98 | – | – | – | – | – | – | 91 | 82 | 73 | 59 | 50 | 46 | 97 | lipase activity, 3 d [5]: 87%; lipase activity, 7 d [5]: 77%; lipase activity, 14 d [5]: 67%; lipase activity, 21 d [5]: 56%; lipase activity, 28 d [5]: 42%; lipase activity, 35 d [5]: 35%; lipase activity, T0 [5]: 95% |
